The text below walks through data of publication PMC7872424, “Mining Natural Products for Macrocycles to Drug Difficult Targets” (Journal of Medicinal Chemistry, 2020).

The subject of data set [1] is HL-60 cell line. The arrangement: method as in Cribiu, R., et al., Angew. Chem. Int. Ed. 2009, 48, 8780–8783. As to conditions: Table S4; ref Cribiu, R., et al., Angew. Chem. Int. Ed. 2009, 48, 8780–8783; cited from earlier work.
In data set [2] the test system is DAUDI cell line. The arrangement: method as in Cribiu, R., et al., Angew. Chem. Int. Ed. 2009, 48, 8780–8783. As to conditions: Table S4; ref Cribiu, R., et al., Angew. Chem. Int. Ed. 2009, 48, 8780–8783; cited from earlier work.
Data set [3] relates to Caco-2 cell monolayers. Description: Efflux-inhibited permeability across Caco-2 cell monolayers. In kind it is in vitro ADME. Background: Caco-2 cells form a polarised layer with tight junctions and transporters.
In data set [4] the test system is DNA gyrase B. Details: method as in earlier work. The following applies: Table S4, ref Brvar, M., et al., Bioorg. Med. Chem. Lett. 2010, 20, 3, 958–962 & Boehm, H. J., J. Med. Chem. 2000, 43, 14, 2664-2674; cited from earlier work.
The test system of data set [5] is Trichophyton mentagrophytes 833. Details: method as in Tamai, S., et al., J. Antibiot., 1982, 35, 1130-1136. As to conditions: Table S4; ref Tamai, S., et al., J. Antibiot., 1982, 35, 1130-1136; cited from earlier work.
Data set [6] has as its system Trichophyton asteroides 429. Details: method as in Tamai, S., et al., J. Antibiot., 1982, 35, 1130-1136. As to conditions: Table S4; ref Tamai, S., et al., J. Antibiot., 1982, 35, 1130-1136; cited from earlier work.

Turning to `CC=CCC=CC(C)CC(O)C1CC2OC2C=CC(O)C(O)C=CCC(C)CC(=O)O1` (stereo not drawn) [Iriomoteolide 3a], in data set [1], the “Antiproliferative activity vs HL-60 cell line” value was “Antiproliferative activity”. Moreover, the “Antiproliferative activity vs DAUDI cell line” value in data set [2] is reported as “Antiproliferative activity”.

With `CC(=O)N1CCC[C@H]1C(=O)N[C@@H]1COC(=O)c2ccccc2CSC[C@H](C(=O)N(C)C)NC1=O` [Compound 14, (4S,7R)-7-((S)-1-Acetylpyrrolidine-2-carboxamido)-N,N-dimethyl-6,10-dioxo-1,3,4,5,6,7,8,10-octahydrobenzo[j][1]oxa[8]thia[5]azacyclododecine-4-carboxamide], in data set [3], the “permeability across Caco-2 cell monolayers (in words)” value is “low-to-moderate”.

Turning to `Cc1c(O)cc(O)c2c1C(=O)OCC(NC(=O)C1C(O)CCN1C(=O)C(N)CO)C(=O)NC(C(=O)NC(C)C(=O)O)CSC2` (stereo not drawn) [Cyclothialidine], in data set [4], the “DNA gyrase B ATPase activity” value is on record as “Inhibition”.

Regarding `Oc1ccc2cc1Oc1ccc(cc1)CC1CNC(CN1)C2` (stereo not drawn) [Piperazinomycin], in data set [5], the “Inhibition of Trichophyton mentagrophytes 833” value is recorded as “Inhibition”. Also, the “Inhibition of Trichophyton asteroides 429” value in data set [6] is on record as “Inhibition”.
